The values that follow come from patent US8481752B2, “Fluorescent imaging with substituted cyanine dyes” (Li-Cor, Inc., priority 2009, dated 2013).

Data set [1] in a line: Photostability on nitrocellulose under repeated Odyssey scans. The data set is classed as physicochemical. The conditions noted are these: for relative fluorescence with additional scans: as GAR conjugates on nitrocellulose, normalized to first scan, 100 scans. The method, then:
The photostability of compound 8 was compared to that of Alexa Fluor 680 and IRDye 700DX. IRDye 700DX is one of the most photostable 700 nm fluorescent dyes known. Test samples were prepared by spotting equimolar amounts of dye-labeled conjugates (i.e., goat anti-rabbit (GAR) secondary antibodies labeled with the appropriate dye) onto nitrocellulose membrane. The membrane was then scanned repeatedly on an Odyssey Infrared Imager, so that the prolonged exposure of the dyes to the laser source induced some photodegradation. The signal intensity for each dye was normalized to the signal in the first scan for that dye (FIG. 9A-B).

A short description of data set [2]: Water solubility of the dye. It is filed as physicochemical.

Structures are written as SMILES.

As to `CC1(C)C(/C=C/C(=C/C=C2/N(CCCS(=O)(=O)O)c3ccc4c(S(=O)(=O)[O-])cc(S(=O)(=O)O)cc4c3C2(C)C)c2cccc(CCCCC(=O)O)c2)=[N+](CCCS(=O)(=O)O)c2ccc3c(S(=O)(=O)O)cc(S(=O)(=O)O)cc3c21` [Compound 8, Sodium 2-((1E,3Z,5E)-3-(3-(4-Carboxybutyl)phenyl)-5-(1,1-dimethyl-6,8-disulfonato-3-(3-sulfonatopropyl)-1H-benzo[e]indol-2(3H)-ylidene)penta-1,3-dienyl)-1,1-dimethyl-3-(3-sulfonatopropyl)-1H-benzo[e]indolium-6,8-disulfonate], the resistance to photodegradation entry in data set [1] (as GAR conjugate) was “good resistance to photodegradation”. The “relative fluorescence with additional scans” value in data set [1] is recorded as “decreased slightly”. The water solubility result in data set [2] is “highly water-soluble”.

Turning to `C[Si](C)(CCC[N+](CCCS(=O)(=O)[O-])(CCCS(=O)(=O)[O-])CCCS(=O)(=O)[O-])O[Si]1(O[Si](C)(C)CCC[N+](CCCS(=O)(=O)[O-])(CCCS(=O)(=O)[O-])CCCS(=O)(=O)[O-])n2c3c4ccccc4c2N=C2N=C(N=c4c5ccccc5c(n41)=NC1=NC(=N3)c3ccccc31)c1cccc(OCCCOC(=O)NCCCCCC(=O)ON3C(=O)CCC3=O)c12.[Na+].[Na+].[Na+].[Na+]` (stereo not shown) [IRDye 700DX], in data set [1], the “relative fluorescence with additional scans” value is “essentially unchanged”.
